# Target: LMPTP-A (Low Molecular Weight Protein Tyrosine Phosphatase-A) enzyme (Homo sapiens (Human), UniProt P24666)
# Test: LMPTP primary screening / LMPTP (OMFP) enzyme inhibition assay, fluorescence intensity
# Type: biochemical
# Settings: LMPTP-A, OMFP substrate, method of Example 2; read-out: IC50
# Procedure, shortened: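 0.625 nM LMPTP-A with 400 μM OMFP substrate in 50 mM Bis-Tris pH 6.0, 1 mM DTT, 0.01% Triton X-100, […]. Compounds at 20 μM final. Incubated 50 min at room temperature in the dark; fluorescence intensity read.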
# LMPTP-A (Low Molecular Weight Protein Tyrosine Phosphatase-A) enzyme, sequence (P24666 whole entry): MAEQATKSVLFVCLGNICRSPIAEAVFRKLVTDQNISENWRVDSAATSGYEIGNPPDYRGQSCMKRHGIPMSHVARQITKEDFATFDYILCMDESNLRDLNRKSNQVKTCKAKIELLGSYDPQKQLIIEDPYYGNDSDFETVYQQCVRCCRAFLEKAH
row,IC50 [nM],SMILES
1,> 5000,Cn1ccc(-c2cc(NCCCN3CCCCC3)c3ccccc3n2)n1 [Compound I178]
2,> 5000,"c1ccc(-c2cc(NCCCN3CCOCC3)c3ccccc3n2)cc1 [Compound I179, (3-morpholin-4-ylpropyl)(2-phenyl(4-quinolyl))amine]"
3,> 5000,"c1ccc(-c2cc(NCCN3CCCC3)c3ccccc3n2)cc1 [Compound I181, (2-phenyl(4-quinolyl))(2-pyrrolidinylethyl)amine]"
4,200 to 800,O=C(NCCc1ccncc1)c1ccc(-c2cc(NCCCN3CCCCC3)c3ccccc3n2)cc1 [Compound I189]
5,200 to 800,CCN(CC)CCCNC(=O)c1ccc(-c2cc(NCCCN3CCCCC3)c3ccccc3n2)cc1 [Compound I190]
6,200 to 800,O=C(NCCN1CCCCC1)c1ccc(-c2cc(NCCCN3CCCCC3)c3ccccc3n2)cc1 [Compound I191]
7,200 to 800,O=C(NCCCN1CCOCC1)c1ccc(-c2cc(NCCCN3CCCCC3)c3ccccc3n2)cc1 [Compound I192]
8,200 to 800,"O=C(c1ccc(-c2cc(NCCCN3CCCCC3)c3ccccc3n2)cc1)N1CCNCC1 [Compound I193, piperazinyl 4-{4-[(3-piperidylpropyl)amino](2-quinolyl)}phenyl ketone]"
9,801 to 5000,"O=C(c1ccc(-c2cc(NCCCN3CCCCC3)c3ccccc3n2)cc1)N1CCCCC1 [Compound I194, piperidyl 4-{4-[(3-piperidylpropyl)amino](2-quinolyl)}phenyl ketone]"
10,200 to 800,NCCCNC(=O)c1ccc(-c2cc(NCCCN3CCCCC3)c3ccccc3n2)cc1 [Compound I195]
11,200 to 800,O=C(NC1CCNCC1)c1ccc(-c2cc(NCCCN3CCCCC3)c3ccccc3n2)cc1 [Compound I196]
12,200 to 800,O=C(NCC1CCNCC1)c1ccc(-c2cc(NCCCN3CCCCC3)c3ccccc3n2)cc1 [Compound I197]
13,200 to 800,O=C(NCCCN1CCCCC1)c1ccc(-c2cc(NCCCN3CCCCC3)c3ccccc3n2)cc1 [Compound I198]
14,801 to 5000,c1ccc2c(NCCCN3CCCCC3)cc(-c3ccc(-c4nn[nH]n4)cc3)nc2c1 [Compound I205]
15,801 to 5000,"COc1ccc(-c2cc(NCc3ccc(CN4CCCCC4)cc3)c3ccccc3n2)cc1 [Compound I210, [2-(4-methoxyphenyl)(4-quinolyl)]{[4-(piperidylmethyl)phenyl]methyl}amine]"
16,> 5000,"NC(=O)c1ccc(-c2cc(NCc3ccc(CN4CCCCC4)cc3)c3ccccc3n2)cc1 [Compound I213, 4-[4-({[4-(piperidylmethyl)phenyl]methyl}amino)-2-quinolyl]benzamide]"
17,> 5000,"CCN(CC)CCCNc1cc(-c2ccc(C(N)=O)cc2)nc2ccccc12 [Compound I218, 4-(4-{[3-(diethylamino)propyl]amino}-2-quinolyl)benzamide]"
18,> 5000,"NC(=O)c1ccc(-c2cc(NCCCN3CCCCCC3)c3ccccc3n2)cc1 [Compound I219, 4-{4-[(3-azaperhydroepinylpropyl)amino]-2-quinolyl}benzamide]"
19,801 to 5000,O=C1Cc2ccc(-c3cc(NCCCN4CCCCC4)c4ccccc4n3)cc2N1 [Compound I221]

# Second part, the molecule before the results:
row,SMILES,IC50 [nM]
1,"c1ccc2c(NCCCC3CCCNC3)cc(-c3ccoc3)nc2c1 (stereo not shown) [Compound I177, (2-(3-furyl)(4-quinolyl))(3-piperidylpropyl)amine]",801 to 5000
2,"CN(C)CCNc1cc(-c2ccccc2)nc2ccccc12 [Compound I183, dimethyl{2-[(2-phenyl(4-quinolyl))amino]ethyl}amine]",> 5000
3,"c1ccc(-c2nc(NCCN3CCOCC3)c3ccccc3n2)cc1 [Compound I184, (2-morpholin-4-ylethyl)(2-phenylquinazolin-4-yl)amine]",> 5000
4,"Fc1ccc(-c2cc(NCCCC3CCCNC3)c3ccccc3n2)cc1 (stereo not shown) [Compound I188, [2-(4-fluorophenyl)(4-quinolyl)](3-piperidylpropyl)amine]",801 to 5000
5,"COc1ccc(-c2cc(NCCc3ccccn3)c3ccccc3n2)cc1 [Compound I199, [2-(4-methoxyphenyl)(4-quinolyl)](2-(2-pyridyl)ethyl)amine]",801 to 5000
6,"COc1ccc(-c2cc(NCCCc3ccncc3)c3ccccc3n2)cc1 [Compound I200, [2-(4-methoxyphenyl)(4-quinolyl)](3-(4-pyridyl)propyl)amine]",801 to 5000
7,"COc1ccc(-c2cc(NCCc3ccncc3)c3ccccc3n2)cc1 [Compound I201, [2-(4-methoxyphenyl)(4-quinolyl)](2-(4-pyridyl)ethyl)amine]",801 to 5000
8,Clc1cccc(-c2cc(NCCCc3cccnc3)c3ccccc3n2)c1 [Compound I202],801 to 5000
9,COc1ccc(-c2cc(NCCCc3cccnc3)c3ccccc3n2)cc1 [Compound I203],801 to 5000
10,"Fc1cc(Cl)ccc1-c1cc(NCCCc2cccnc2)c2ccccc2n1 [Compound I204, [2-(4-chloro-2-fluorophenyl)(4-quinolyl)](3-(3-pyridyl)propyl)amine]",801 to 5000
11,"CCN1CCN(Cc2ccc(Nc3cc(-c4ccc(OC)cc4)nc4c3CCCC4)cc2)CC1 [Compound I206, {4-[(4-ethylpiperazinyl)methyl]phenyl}[2-(4-methoxyphenyl)(4-5,6,7,8-tetrahydroquinolyl)]amine]",801 to 5000
12,COc1ccc(-c2cc(NCCCN3CCCCC3)c3c(n2)CCCC3)cc1 [Compound I208],801 to 5000
13,"COc1ccc(-c2cc(Nc3cccc(CN4CCCC4)c3)c3c(n2)CCCC3)cc1 [Compound I209, [2-(4-methoxyphenyl)(4-5,6,7,8-tetrahydroquinolyl)][3-(pyrrolidinylmethyl)phenyl]amine]",801 to 5000
14,"COc1ccc(-c2cc(NCc3ccc(CN4CCOCC4)cc3)c3ccccc3n2)cc1 [Compound I211, [2-(4-methoxyphenyl)(4-quinolyl)]{[4-(morpholin-4-ylmethyl)phenyl]methyl}amine]",801 to 5000
15,"NC(=O)c1ccc(-c2cc(NCc3ccc(CN4CCOCC4)cc3)c3ccccc3n2)cc1 [Compound I212, 4-[4-({[4-(morpholin-4-ylmethyl)phenyl]methyl}amino)-2-quinolyl]benzamide]",> 5000
16,"CCN1CCN(Cc2ccc(CNc3cc(-c4ccc(C(N)=O)cc4)nc4ccccc34)cc2)CC1 [Compound I214, 4-{4-[({4-[(4-ethylpiperazinyl)methyl]phenyl}methyl)amino]-2-quinolyl}benzamide]",> 5000
17,"CCN1CCN(Cc2ccc(Nc3cc(-c4ccc(C(N)=O)cc4)nc4ccccc34)cc2)CC1 [Compound I215, 4-[4-({4-[(4-ethylpiperazinyl)methyl]phenyl}amino)-2-quinolyl]benzamide]",> 5000
18,"NC(=O)c1ccc(-c2cc(Nc3ccc(CCN4CCNCC4)cc3)c3ccccc3n2)cc1 [Compound I216, 4-(4-{[4-(2-piperazinylethyl)phenyl]amino}-2-quinolyl)benzamide]",> 5000
19,"CN(C)CCc1ccc(Nc2cc(-c3ccc(C(N)=O)cc3)nc3ccccc23)cc1 [Compound I217, 4-[4-({4-[2-(dimethylamino)ethyl]phenyl}amino)-2-quinolyl]benzamide]",> 5000
20,"NC(=O)c1ccc(-c2cc(Nc3ccc(CC4CCNCC4)cc3)c3ccccc3n2)cc1 [Compound I220, 4-(4-{[4-(4-piperidylmethyl)phenyl]amino}-2-quinolyl)benzamide]",> 5000
21,"NC(=O)c1ccc(-c2cc(N3CCC(Cc4ccc(N)cc4)CC3)c3ccccc3n2)cc1 [Compound I222, 4-(4-{4-[(4-aminophenyl)methyl]piperidyl}-2-quinolyl)benzamide]",> 5000
